Data on nine compounds can be found in PubChem BioAssay (NCI).

Some test systems named below: OVCAR-4 ovarian; RXF 393 renal; SNB-75 CNS; HT29 colon; MOLT-4 leukemia; SF-268 CNS; SK-MEL-28 melanoma; MCF7 breast; MDA-MB-231 breast; CAKI-1 renal.
Experiment in all cases: growth of human tumour cells (NCI), 48 h

Each structure is given as a SMILES string.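 96-well plates; 48 h exposure; 5 concentrations. Endpoints by linear interpolation between flanking doses. Not reached: highest tested concentration assigned. GI50: concentration for 50% inhibition of growth. TGI: concentration producing complete growth inhibition.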

As for `COc1ccc(O)c(/C=N\Nc2ccccc2)c1`, the TGI is > 100000 nM in the assay with OVCAR-4 ovarian; > 100000 nM in the assay on RXF 393 renal; > 100000 nM in the assay on SNB-75 CNS; 29900 nM in the assay on HT29 colon; 18200 nM in the assay on MOLT-4 leukemia; > 100000 nM with SF-268 CNS. Moreover, the TGI with SK-MEL-28 melanoma is 91400 nM; with MCF7 breast it was > 100000 nM; in the assay with MDA-MB-231 breast, > 100000 nM.
As to `COc1cc2c3c(n(CCCN=[N+]=[N-])c(=O)c2cc1OC)-c1ccccc1C3=O`, the GI50 with CAKI-1 renal was 2130 nM; with OVCAR-4 ovarian, 22600 nM; with SNB-75 CNS, 2530 nM; in the assay on HT29 colon, > 100000 nM; in the assay on MOLT-4 leukemia, 702 nM; in the assay on SF-268 CNS it was > 100000 nM. Further, the GI50 in the assay on SK-MEL-28 melanoma is > 100000 nM; in the assay on MCF7 breast, 5350 nM; with MDA-MB-231 breast it was > 100000 nM. In addition, the TGI in the assay on CAKI-1 renal was 7770 nM; in the assay on OVCAR-4 ovarian, > 100000 nM; with SNB-75 CNS, 8490 nM; in the assay on HT29 colon, > 100000 nM; in the assay on MOLT-4 leukemia it was 3380 nM; in the assay on SF-268 CNS, > 100000 nM. For the same compound, the TGI in the assay on SK-MEL-28 melanoma, in the assay with MCF7 breast and in the assay on MDA-MB-231 breast was > 100000 nM each time.
With `CCCCCSc1ccc2nc(NC(=O)OCC)sc2c1`, the GI50 with CAKI-1 renal is 626 nM; in the assay with RXF 393 renal, 1030 nM; in the assay on SNB-75 CNS, 410 nM; in the assay on HT29 colon, 348 nM; with MOLT-4 leukemia it was 850 nM; with SF-268 CNS, 866 nM. The GI50 in the assay on SK-MEL-28 melanoma was 66200 nM; with MCF7 breast it was 300 nM; with MDA-MB-231 breast it was 950 nM. The TGI was > 100000 nM in the assay with CAKI-1 renal; 9190 nM with RXF 393 renal; 20200 nM in the assay on SNB-75 CNS; > 100000 nM in the assay with HT29 colon; > 100000 nM in the assay on MOLT-4 leukemia; > 100000 nM in the assay on SF-268 CNS. For the same compound, the TGI with SK-MEL-28 melanoma, with MCF7 breast and in the assay with MDA-MB-231 breast was > 100000 nM throughout.
On to `COC(=O)CCc1n(Cc2ccc3ccccc3c2)c2ccccc2[n+]1Cc1ccc2ccccc2c1`, for which the GI50 in the assay with OVCAR-4 ovarian was 315 nM; with RXF 393 renal, 874 nM; with SNB-75 CNS, 930 nM; in the assay on HT29 colon, 571 nM; in the assay on MOLT-4 leukemia, 1130 nM; in the assay with SF-268 CNS it was 1380 nM. Moreover, the GI50 in the assay with SK-MEL-28 melanoma is 800 nM; in the assay with MCF7 breast it was 795 nM; in the assay with MDA-MB-231 breast, 682 nM. Besides, the TGI worked out at 1890 nM in the assay on OVCAR-4 ovarian; 2230 nM in the assay on RXF 393 renal; 2260 nM in the assay on SNB-75 CNS; 1970 nM with HT29 colon; 2980 nM with MOLT-4 leukemia; 2990 nM in the assay with SF-268 CNS. For the same compound, the TGI amounted to 2460 nM in the assay on SK-MEL-28 melanoma, 2340 nM in the assay with MCF7 breast and 2190 nM with MDA-MB-231 breast.
In the case of `Cn1cnc([N+](=O)[O-])c1S(=O)(=O)Oc1ccc(Cl)cc1`, the GI50 is 1670 nM in the assay on CAKI-1 renal; 2770 nM in the assay with RXF 393 renal; 14100 nM in the assay with SNB-75 CNS; 2330 nM in the assay on HT29 colon; 2250 nM in the assay on MOLT-4 leukemia; 15700 nM with SF-268 CNS. Further, the GI50 in the assay on SK-MEL-28 melanoma is 19200 nM; with MCF7 breast, 22900 nM; with MDA-MB-231 breast, 2800 nM. Further, the TGI is 3510 nM in the assay on CAKI-1 renal; 8010 nM in the assay with RXF 393 renal; 29700 nM in the assay on SNB-75 CNS; 5360 nM in the assay with HT29 colon; 5260 nM with MOLT-4 leukemia; 38100 nM with SF-268 CNS. The TGI with SK-MEL-28 melanoma was determined as 51800 nM; with MCF7 breast, 96100 nM; in the assay on MDA-MB-231 breast it was 5990 nM.
Turning to `COc1ccc(C(=O)/C=C/c2cc(-c3ccc(OC)c(OC)c3)n[nH]2)cc1OC`, the GI50 in the assay on OVCAR-4 ovarian is 1920 nM; in the assay with RXF 393 renal, 1450 nM; in the assay with SNB-75 CNS, 1160 nM; with HT29 colon, 1380 nM; in the assay with MOLT-4 leukemia, 2200 nM; with SF-268 CNS, 2090 nM. The figures for the GI50 in the assay on SK-MEL-28 melanoma, in the assay on MCF7 breast and in the assay on MDA-MB-231 breast were 1820 nM, 937 nM and 1880 nM, respectively. Also, the TGI was 8150 nM in the assay with OVCAR-4 ovarian; 2980 nM with RXF 393 renal; 2960 nM with SNB-75 CNS; 4950 nM with HT29 colon; > 100000 nM in the assay with MOLT-4 leukemia; 9820 nM with SF-268 CNS. The TGI worked out at 4820 nM in the assay with SK-MEL-28 melanoma, 8020 nM in the assay on MCF7 breast and 6380 nM in the assay on MDA-MB-231 breast.
Consider `CCCCCCOC(=O)CC1=C(C)/C(=C/c2[nH]c(-c3ccc[nH]3)cc2OC)N=C1C`, for which the GI50 with CAKI-1 renal is 70.6 nM; in the assay with OVCAR-4 ovarian it was 78.5 nM; in the assay with RXF 393 renal, 163 nM; in the assay on SNB-75 CNS, 37.2 nM; in the assay on HT29 colon, 33.1 nM; in the assay with MOLT-4 leukemia it was 43.6 nM. Further, the GI50 with SF-268 CNS was 81.8 nM; with MCF7 breast, 96.1 nM; with MDA-MB-231 breast it was 33.6 nM. Besides, the TGI in the assay on CAKI-1 renal turned out to be 1120 nM; with OVCAR-4 ovarian it was 1710 nM; in the assay on RXF 393 renal, 1070 nM; with SNB-75 CNS, 300 nM; in the assay with HT29 colon, 1050 nM; with MOLT-4 leukemia it was 1460 nM. Moreover, the TGI with SF-268 CNS worked out at 2000 nM; in the assay with MCF7 breast, 1380 nM; in the assay on MDA-MB-231 breast it was 626 nM.
In the case of `CN1CCc2ccccc2C1Cc1ccccc1NC(=O)c1sc2ccccc2c1Cl` (stereo not given), the TGI with CAKI-1 renal, in the assay on OVCAR-4 ovarian, with RXF 393 renal, in the assay on SNB-75 CNS, in the assay on MOLT-4 leukemia and in the assay with SF-268 CNS was > 100000 nM in each case. The TGI with SK-MEL-28 melanoma, in the assay on MCF7 breast and with MDA-MB-231 breast was > 100000 nM in each case.
`Nc1nc(-c2cccnc2)cc(-c2cc(-c3cccnc3)nc(N)n2)n1`: the TGI in the assay on CAKI-1 renal, in the assay with OVCAR-4 ovarian, in the assay on RXF 393 renal, in the assay on HT29 colon, in the assay on MOLT-4 leukemia and with SF-268 CNS was > 100000 nM each time. Further, the TGI in the assay with SK-MEL-28 melanoma, with MCF7 breast and with MDA-MB-231 breast was > 100000 nM each time.
